# Values of other authors in patent US10981928B2, “Methods of making low odor choline salts of an organic compound” (HALO LIFE SCIENCE, LLC, priority 2016, dated 2021).
# Assays:
# [1] = PEG 400 at 37° C.; comparison value
# [2] = comparison value
compound,measurement,setting,value
O=c1oc2c(O)c(O)cc3c(=O)oc4c(O)c(O)cc1c4c23 [ellagic acid],solubility in PEG 400,[1],8000 µg/mL
same,solubility in water,[2],~4 µg/mL
